Reference: patent US20110014291A1, “Novel Polymorphs of Bosentan” (ACTAVIS GROUP PTC EHF, priority 2007, published 2011)

Test: dissolution properties of the solid form
Assay type: physicochemical
Settings: conditions not given

dissolution properties: advantageous dissolution properties
Structure (SMILES): COc1ccccc1Oc1c(NS(=O)(=O)c2ccc(C(C)(C)C)cc2)nc(-c2ncccn2)nc1OCCO [amorphous form, bosentan]
